Test results from US20240262835A1, “PRMT5 INHIBITING COMPOUNDS AND USES THEREOF” (ANTENGENE DISCOVERY LIMITED, priority 2023, published 2024).

Columns and labels:
PRMT5/MEP50 = PRMT5/MEP50 (Homo sapiens (Human), UniProt O14744); test: MTase-Glo methyl transferase assay (PRMT5 inhibition); type: biochemical; details: 50 nM PRMT5/MEP50, 25 μM SAM, 5 μM Histone H4 peptide (1-21), read-out: IC50 for PRMT5 inhibiting
[1] = In vivo pharmacokinetics assay in mice via IV and PO; parameters: species or system ICR mice; details: for Cl: IV 1.0 mg/kg; for C8 h / C24 h / Cmax: plasma
Experimental: Pharmacokinetics assay for test compounds was performed in mice via IV and PO.
Test compound solution was prepared on the day of administration.
Solvent: IV+PO: 5% DMSO+10% Soultol+85% H2O or saline
Species: ICR mice; SPF level.
Source: Beijing Vital River Laboratory Animal Technology Co., Ltd.
Animal selection: Males. No random grouping
Weighed before dosing, calculated dosage according to body weight. For Groups 1-3, the drug was administered intravenously or intragastrically. For Group 4, the drug administered intragastrically.
For Groups 1-3, at 0.083 h, 0.25 h, 0.5 h, 1 h, 2 h, 4 h, 6 h, 8 h, 24 h, after administration. For Group 4, at 2 h and 4 h after administration.
Blood was collected through the cheeks. For each sample, about 0.05 mL of blood was collected and was added heparin sodium or EDTA-2K as anticoagulant, and was placed on wet ice.
The blood samples were collected and placed on ice and was centrifuged within 1 hour (centrifugation: 6000 g, 3 minutes, 2-8° C.) to separate plasma. Plasma samples were stored in a −80° C. refrigerator prior to analysis.
The pharmacokinetic parameters were calculated using Phoenix WinNonlin8.2.0 based on the blood concentration data at different time points, and AUC0-t, AUC0-∞, MRT0-∞, Cmax, Tmax, and T1/2 and mean values and standard deviations thereof were provided.

[2] = system: human colon cancer cell line HCT116 (WT); test: In vivo efficacy assay, subcutaneous HCT116 WT xenograft; parameters: species or system Balb/C nude female mouse; details: 15 mg/kg PO/QD, 21 days, Balb/C nude mice
Experimental: The antitumor effect or MTAP/MTA selectivity of the compounds provided herein in the subcutaneously transplanted Balb/C nude female mouse model of human colon cancer cell line HCT116 (WT and MTAP KO) was tested.
Cell viability and cell count were determined. Cell count of the suspension was adjusted to 1×10^8 cells/mL and mixed with Matrigel in a 1:1 volume. Each mouse for this study were inoculated subcutaneously in the right front flank region with 5×10^6 tumor cells (0.1 mL) for tumor development.
The randomization started when the mean tumor size reaches approximately 100-150 mm^3. Mice inoculated with HCT116 WT cells were randomized on day 7. Mice inoculated with HCT116 MTAP KO cells were randomized on day 8. All animals were randomly allocated to 5 study groups, each group consisted of 8 animals. Randomization was performed based on randomized block design.
Tumor volume was measured twice per week in two dimensions using a caliper, and the volume was expressed in mm^3 using the formula: “V=(L×W×W)/2”, where V is tumor volume, L is tumor length (the longest tumor dimension) and W is tumor width (the longest tumor dimension perpendicular to L).

[3] = microsomes; for CLint (mic) H / T1/2 of LMS, H: human
[4] = microsomes; for CLint (mic) R / T1/2 of LMS, R: rat
[5] = microsomes; for CLint (mic) D / T1/2 of LMS, D: dog
[6] = microsomes; for CLint (mic) C / T1/2 of LMS, C: cynomolgus monkey
[7] = Liver microsome metabolic stability (LMS) assay, mouse; details: mouse liver microsome 0.5 mg protein/mL, 1 μM, NADPH
[8] = system: cryopreserved hepatocytes; test: Hepatic metabolic stability (HMS) assay, dog hepatocytes; details: for T1/2 (hepatocytes) D / CLint (liver) D: dog hepatocytes; for T1/2 (hepatocytes) D: 1 μM test compound (3 μM positive control); for CLint (liver) D: scaled to liver; for CLint (hep) D: dog, hepatocytes
Experimental: 1) 10 mM test compounds were provided.
(§1) 2) 30 mM positive control stock solutions: Dissolved accurate amount of positive control compounds in dimethyl sulfoxide (DMSO).
(§2) 3) 1000× Stock Solution: Diluted 10 mM test compounds and 30 mM positive control compounds to 1 mM and 3 mM with DMSO in 96-well plates.
(§3) 4) 100× Dosing Solution: Diluted 1 mM test compounds and 3 mM positive control compounds to 100 μM and 300 μM dosing solutions with ACN.
(§4) 5) Preparation of 0.5×10^6/mL cells suspension: cryopreserved cells were thawed, isolated and suspended in Incubation Medium, then diluted with pre-warmed Incubation Medium to 0.5×10^6 cells/mL.
(§5) 6) Add 198 μL of pre-warmed cell suspensions in 96-well plates.
(§6) 7) Preparation of Quenching Plate: Transfer 125 μL of stop solution in a set of pre-labeled 96-well plates.
(§7) 8) Spike 2 μL dosing solution to each well of 96-well plates in duplicate.
(§8) 9) For TO Samples, mix to achieve a homogenous suspension for about 1 min, then immediately transfer 25 μL of each sample into well containing 125 μL of ice-cold stop solution followed by mixing.
(§9) 10) Incubate all plates at 37° C. in a 95% humidified incubator at 5% CO2 to start the reactions with constant shaking.
(§10) 11) At 15, 30, 60 and 90 min, mix samples and then transfer 25 μL of each sample at each time point to well containing 125 μL of ice-cold stop solution followed by mixing.
(§11) 12) Medium Control (MC) sample plates (labeled as TO-MC and T90-MC) are prepared in the same way as cell incubation except that medium was used instead of cell suspension.
(§12) 13) At each corresponding time point, stop the reactions by removing the plates from incubator and mixing with 125 μL of ice-cold stop solution.
(§13) 14) Vortex the plates immediately on a plate shaker at 600 rpm for 10 minutes. Then, centrifuge all sample plates at 3220×g for 20 min at 4° C.
(§14) 15) After centrifugation, 80 μL/well of supernatant in the sample plates are transferred to another set of pre-labeled 96-well plates which containing 240 μL of ultra pure water according to the plate map.
(§15) 16) Analytical plates are sealed and store at 4° C. until LC-MS/MS analysis.
(§16) The remaining percents of test articles after incubation were calculated by the follow equations:
(§17) Use the following equation of first order kinetics to calculate T1/2 and CLint:

[9] = system: cryopreserved hepatocytes; test: Hepatic metabolic stability (HMS) assay, mouse hepatocytes; details: for T1/2 (hepatocytes) M / CLint (liver) M: mouse hepatocytes; for T1/2 (hepatocytes) M: 1 μM test compound (3 μM positive control); for CLint (liver) M: scaled to liver; for CLint (hep) M: mouse, hepatocytes
Experimental: 1) 10 mM test compounds were provided.
as §1, §2, §3, §4, §5, §6, §7, §8, §9, §10, §11, §12, §13, §14, §15, §16, §17

Sequence of PRMT5/MEP50 (O14744 whole entry): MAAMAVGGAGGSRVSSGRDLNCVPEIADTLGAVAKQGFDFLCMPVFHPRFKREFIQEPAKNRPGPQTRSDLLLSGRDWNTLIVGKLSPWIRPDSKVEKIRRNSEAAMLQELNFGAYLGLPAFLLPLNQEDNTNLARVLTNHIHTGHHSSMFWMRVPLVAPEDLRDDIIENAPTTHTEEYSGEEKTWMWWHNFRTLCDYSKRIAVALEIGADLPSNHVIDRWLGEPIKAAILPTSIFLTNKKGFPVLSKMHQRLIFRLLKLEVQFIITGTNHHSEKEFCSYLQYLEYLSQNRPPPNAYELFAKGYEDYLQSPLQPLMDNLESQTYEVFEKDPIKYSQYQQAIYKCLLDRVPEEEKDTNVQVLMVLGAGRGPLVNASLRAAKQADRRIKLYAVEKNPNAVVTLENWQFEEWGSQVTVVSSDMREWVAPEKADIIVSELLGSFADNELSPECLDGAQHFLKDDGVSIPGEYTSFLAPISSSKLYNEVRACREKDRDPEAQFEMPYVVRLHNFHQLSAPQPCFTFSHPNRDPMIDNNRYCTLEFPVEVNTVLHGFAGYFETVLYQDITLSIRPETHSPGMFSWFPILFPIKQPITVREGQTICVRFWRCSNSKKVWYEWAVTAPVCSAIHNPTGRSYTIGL
Sequence of PRMT5/MEP50 (Q9BQA1 whole entry partner): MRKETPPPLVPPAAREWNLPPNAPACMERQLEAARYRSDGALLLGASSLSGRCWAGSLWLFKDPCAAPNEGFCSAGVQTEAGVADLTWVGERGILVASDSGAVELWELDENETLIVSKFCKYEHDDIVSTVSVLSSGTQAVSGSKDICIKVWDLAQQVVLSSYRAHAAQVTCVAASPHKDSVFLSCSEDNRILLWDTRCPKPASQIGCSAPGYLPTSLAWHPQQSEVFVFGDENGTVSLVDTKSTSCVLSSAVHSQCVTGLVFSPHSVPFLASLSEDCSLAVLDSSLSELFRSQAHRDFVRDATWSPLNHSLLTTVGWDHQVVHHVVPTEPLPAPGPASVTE

CN(C(=O)c1cc2c(cn1)nc(N)c1cncn12)C1COc2cc(C(F)(F)F)ccc21 (stereo not shown) [Compound 19]
IC50 (PRMT5/MEP50): 25 nM | Cl [1]: 4.38 mL/min/kg | AUC0-t ([1]; PO 10 mg/kg): 32782 ng·h/mL | T1/2 ([1]; PO 10 mg/kg): 4.88 h | C8 h ([1]; PO 10 mg/kg): 1833 ng/mL | C24 h ([1]; PO 10 mg/kg): 178 ng/mL | Cmax ([1]; PO 10 mg/kg): 2620 ng/mL | AUC0-t ([1]; PO 30 mg/kg): 94249 ng·h/mL | T1/2 ([1]; PO 30 mg/kg): 5.26 h | C8 h ([1]; PO 30 mg/kg): 4817 ng/mL | C24 h ([1]; PO 30 mg/kg): 540 ng/mL | Cmax ([1]; PO 30 mg/kg): 8117 ng/mL | Tumor growth inhibition (TGI) HCT 116 WT [2]: 74% | CLint (mic) H [3]: <9.6 µL/min/mg | T1/2 of LMS, H [3]: >2.42 h | CLint (liver) H [3]: <8.6 mL/min/kg | CLint (liver) R [4]: <17.3 mL/min/kg | CLint (mic) R [4]: <9.6 µL/min/mg | T1/2 of LMS, R [4]: >2.42 h | CLint (mic) D [5]: <9.6 µL/min/mg | T1/2 of LMS, D [5]: >2.42 h | CLint (liver) D [5]: <13.8 mL/min/kg | CLint (mic) C [6]: <9.6 µL/min/mg | T1/2 of LMS, C [6]: >2.42 h | CLint (liver) C [6]: <13.0 mL/min/kg | T1/2 of LMS, M [7]: 2 h | T1/2 (hepatocytes) D [8]: >3.613 h | CLint (liver) D [8]: <44 mL/min/kg | CLint (hep) D [8]: <6.4 μL/min/10^6 | T1/2 (hepatocytes) M [9]: 2.35 h | CLint (liver) M [9]: 116.7 mL/min/kg | CLint (hep) M [9]: 9.8 μL/min/10^6

CN(C(=O)c1cc2c(cn1)nc(N)c1cncn12)C1COc2cc(C(F)(F)F)ccc21 (stereo not shown) [Compound 21]
IC50 (PRMT5/MEP50): 25 nM | Cl [1]: 3.94 mL/min/kg | AUC0-t ([1]; PO 10 mg/kg): 43397 ng·h/mL | T1/2 ([1]; PO 10 mg/kg): 6.67 h | C8 h ([1]; PO 10 mg/kg): 2537 ng/mL | C24 h ([1]; PO 10 mg/kg): 415 ng/mL | Cmax ([1]; PO 10 mg/kg): 2820 ng/mL | AUC0-t ([1]; PO 30 mg/kg): 124997 ng·h/mL | T1/2 ([1]; PO 30 mg/kg): 6.45 h | C8 h ([1]; PO 30 mg/kg): 6880 ng/mL | C24 h ([1]; PO 30 mg/kg): 1257 ng/mL | Cmax ([1]; PO 30 mg/kg): 8710 ng/mL | Tumor growth inhibition (TGI) HCT 116 WT [2]: 59% | CLint (mic) H [3]: <9.6 µL/min/mg | T1/2 of LMS, H [3]: >2.42 h | CLint (liver) H [3]: <8.6 mL/min/kg | CLint (liver) R [4]: <17.3 mL/min/kg | CLint (mic) R [4]: <9.6 µL/min/mg | T1/2 of LMS, R [4]: >2.42 h | CLint (mic) D [5]: <9.6 µL/min/mg | T1/2 of LMS, D [5]: >2.42 h | CLint (liver) D [5]: <13.8 mL/min/kg | CLint (mic) C [6]: <9.6 µL/min/mg | T1/2 of LMS, C [6]: >2.42 h | CLint (liver) C [6]: <13.0 mL/min/kg | T1/2 of LMS, M [7]: 1.82 h | T1/2 (hepatocytes) D [8]: >3.613 h | CLint (liver) D [8]: <44 mL/min/kg | CLint (hep) D [8]: <6.4 μL/min/10^6 | T1/2 (hepatocytes) M [9]: 2.582 h | CLint (liver) M [9]: 106.3 mL/min/kg | CLint (hep) M [9]: 8.9 μL/min/10^6
